From US8119672B2, “Compounds, compositions and methods for treating or preventing pneumovirus infection and associated diseases” (Microdose Therapeutx, Inc., priority 2002, dated 2012) come the findings set out here.

The nature of this data set: Solubility in ethanol/propylene glycol/water (85:10:5). Particulars: R1 in meta position (compound of the invention); ethanol/propylene glycol/water (85:10:5) by volume. It counts as physicochemical. How it is done:
The solubilities are measured in ethanol/propylene glycol/water (85:10:5) (proportions are by volume).
With “3-[[Bis[[5-(5-methyl-1H-tetrazol-1-yl)imino]methyl]-2-hydroxyphenyl]methylene] -N,N-dimethylbenzenesulfonamide [Example 31]”, the “Meta Position Solubiity” value turned out to be 0.08 mg/mL.
Take `CCCc1cccc(C(c2cc(C=Nn3nnnc3C)ccc2O)c2cc(C=Nn3nnnc3C)ccc2O)c1` (stereo not drawn) [Example 1, 2,2′-[(3-Propylphenyl)methylene]bis[4-[[(5-methyl-1H-tetrazol-1-yl)imino]methyl]]phenol]: the “Meta Position Solubiity” value worked out at 1.9 mg/mL.
On to `Cc1nnnn1N=Cc1ccc(O)c(C(c2cccc(N(C)C)c2)c2cc(C=Nn3nnnc3C)ccc2O)c1` (stereo not drawn) [Example 2, 2,2′-[[(3-Dimethylamino)phenyl]methylene]bis[4-[[(5-methyl-1H-tetrazol-1-yl)imino]methyl]]phenol], for which the “Meta Position Solubiity” value was 2.10 mg/mL.
Regarding `CCOc1cccc(C(c2cc(C=Nn3nnnc3C)ccc2O)c2cc(C=Nn3nnnc3C)ccc2O)c1` (stereo not drawn) [Example 6, 2,2′-[(3-Ethoxyphenyl)methylene]bis[4-[[(5-methyl-1H-tetrazol-1-yl)imino]methyl]]phenol], the “Meta Position Solubiity” value was 1.85 mg/mL.
As for `CCN(CC)c1cccc(C(c2cc(C=Nn3nnnc3C)ccc2O)c2cc(C=Nn3nnnc3C)ccc2O)c1` (stereo not drawn) [Example 20, 2,2′-[[(3-Diethylamino)phenyl]methylene]bis[4-[[(5-methyl-1H-tetrazol-1-yl)imino]methyl]]phenol], the “Meta Position Solubiity” value was 1.45 mg/mL.
As for `Cc1nnnn1N=Cc1ccc(O)c(C(c2cccc([N+](=O)[O-])c2)c2cc(C=Nn3nnnc3C)ccc2O)c1` (stereo not drawn) [Example 27, 2,2′-[(3-Nitrophenyl)methylene]bis[4-[[(5-methyl-1H-tetrazol-1-yl)imino]methyl]]phenol], the “Meta Position Solubiity” value worked out at 0.98 mg/mL.
